For series [1], the system named is Ac-histone H3 (substrate for HDACs 1, 2, and 3). Briefly: Western blot of Ac-histone H3 in HCT-116 cells. The series is classed as cell-based. The settings on record: HCT-116, 20 μM, 24 h. On the procedure: (§1) Since HDACs regulate the acetylation status of histone and nonhistone proteins in cells, the acetylation levels of histone H3 (a known substrate for HDACs 1, 2, and 3) and α-tubulin (a known substrate for HDAC6) are frequently used as markers of cellular HDAC activity. […] HCT-116 cells were incubated with compound 10e (5−20 μM) for 24 h, and the levels of acetylation of histone H3 and α-tubulin were detected by the Western blot. […]
(§2) with 75% cold ethanol at 4 °C overnight. After that, fixed cells were washed with PBS. Then, cells were isolated by centrifugation and stained with propidium iodide (KeyGEN BioTECH, China) for 30 min. The samples were measured using flow cytometry and analyzed by Flowjo software.
(§3) Section S 1.6 Western blot assay
(§4) Total cell lysates from cultured HCT-116 cells after treatment with compound 10e as mentioned earlier were obtained by lysing the cells in ice-cold RIPA buffer with protease and phosphatase inhibitor and stored at -20°C for future use. The protein concentrations were quantified by the Bradford method (Bio-Rad) using a Multimode Varioscan instrument (Thermo Fischer Scientific). […]
(§5) The in vivo antitumor activity of compound 10e was evaluated in the mouse colon carcinoma cell line CT-26 in BALB/c mice as described previously. […]

The target of the next series is HDAC1 (Homo sapiens, UniProt Q13547). Briefly: HDAC isoform selectivity assay, HDAC1. It counts as biochemical.
Chain of HDAC1 (Q13547 whole entry, species assumed, canonical isoform): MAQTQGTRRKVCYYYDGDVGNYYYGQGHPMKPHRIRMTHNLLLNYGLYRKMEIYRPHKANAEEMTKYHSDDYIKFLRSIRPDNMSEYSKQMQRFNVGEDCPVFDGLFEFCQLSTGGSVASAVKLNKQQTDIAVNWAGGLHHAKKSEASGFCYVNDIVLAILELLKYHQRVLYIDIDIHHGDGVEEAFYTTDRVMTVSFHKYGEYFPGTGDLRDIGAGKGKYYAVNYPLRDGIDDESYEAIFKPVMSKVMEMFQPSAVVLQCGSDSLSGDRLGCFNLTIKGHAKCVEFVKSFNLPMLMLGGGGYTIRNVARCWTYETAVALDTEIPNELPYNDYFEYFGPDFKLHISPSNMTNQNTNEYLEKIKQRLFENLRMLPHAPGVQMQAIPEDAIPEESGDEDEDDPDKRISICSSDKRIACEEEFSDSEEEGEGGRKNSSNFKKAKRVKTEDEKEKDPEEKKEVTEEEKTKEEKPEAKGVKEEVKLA
A short description of series [2]: Cell viability assay, HK2 normal renal cells. The settings on record: human.
Description: On the basis of the IDO1 and HDAC activities, we explored the proliferation inhibitory activities of the selected compounds against four solid tumor cells lines.
Series [3] deals with T1, HDAC6 human recombinant enzyme (Homo sapiens, UniProt Q9UBN7).
T1 sequence (Q9UBN7 1-1215): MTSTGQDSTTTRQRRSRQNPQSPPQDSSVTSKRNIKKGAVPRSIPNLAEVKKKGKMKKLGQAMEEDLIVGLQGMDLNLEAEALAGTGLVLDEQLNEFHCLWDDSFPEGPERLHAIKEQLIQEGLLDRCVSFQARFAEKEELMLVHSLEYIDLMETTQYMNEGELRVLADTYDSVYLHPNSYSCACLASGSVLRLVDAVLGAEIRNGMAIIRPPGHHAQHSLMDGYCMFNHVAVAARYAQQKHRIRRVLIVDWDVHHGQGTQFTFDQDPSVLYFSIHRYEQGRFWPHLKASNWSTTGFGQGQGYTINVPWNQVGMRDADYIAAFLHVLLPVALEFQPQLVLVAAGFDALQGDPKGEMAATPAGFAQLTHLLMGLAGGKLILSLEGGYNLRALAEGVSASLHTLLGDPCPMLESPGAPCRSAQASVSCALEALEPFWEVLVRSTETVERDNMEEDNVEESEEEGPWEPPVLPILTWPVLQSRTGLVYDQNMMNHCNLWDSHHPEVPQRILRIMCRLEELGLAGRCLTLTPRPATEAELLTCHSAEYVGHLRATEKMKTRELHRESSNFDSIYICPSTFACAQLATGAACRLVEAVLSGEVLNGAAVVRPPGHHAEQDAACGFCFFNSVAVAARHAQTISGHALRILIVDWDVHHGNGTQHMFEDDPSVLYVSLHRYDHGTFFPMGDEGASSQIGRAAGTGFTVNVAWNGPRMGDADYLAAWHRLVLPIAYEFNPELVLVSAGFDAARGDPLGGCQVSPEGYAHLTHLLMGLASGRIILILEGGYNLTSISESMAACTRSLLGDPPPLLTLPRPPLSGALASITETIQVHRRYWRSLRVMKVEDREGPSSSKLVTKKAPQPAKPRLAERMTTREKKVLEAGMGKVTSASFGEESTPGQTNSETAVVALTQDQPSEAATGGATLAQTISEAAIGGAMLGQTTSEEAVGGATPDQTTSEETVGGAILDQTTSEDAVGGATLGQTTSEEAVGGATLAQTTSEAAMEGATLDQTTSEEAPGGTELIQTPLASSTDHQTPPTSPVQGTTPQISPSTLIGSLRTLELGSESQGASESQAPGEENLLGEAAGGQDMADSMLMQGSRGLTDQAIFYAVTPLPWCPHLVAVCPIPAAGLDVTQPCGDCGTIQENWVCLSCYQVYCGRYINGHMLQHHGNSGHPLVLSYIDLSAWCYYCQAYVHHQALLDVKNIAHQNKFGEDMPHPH
As to the kind of experiment: HDAC6 enzyme inhibitory activity assay. The series is classed as biochemical. On the procedure:
Section S1. Biological assays
Section S 1.1. HDAC6 enzyme inhibitory activity assay
Preparation of Master Mix. Trichostatin A in DMSO, Fluorogenic HDAC substrate 3, and HDAC6 human recombinant enzyme were diluted to 20 μM, 200 μM, and 7 ng/uL, respectively, using HDAC Assay Buffer.BSA was dissolved in 1 mL of distilled water to make a BSA solution at a concentration of 1 mg/mL. A certain amount of Fluorogenic HDAC substrate 3, BSA and HDAC Assay Buffer were mixed well to make a master mix, and 40 μL of the master mix was added to each well of a 96-well plate. In the drug administration group, 5 μL of Trichostatin A in DMSO and HDAC6 human recombinant enzyme were added to each well. 5 μL of HDAC Assay Buffer and HDAC6 human recombinant enzyme were added to each well of the blank group, and incubated for 30 min at 37 °C. Finally, 50 μL of undiluted HDAC substrate 3, BSA and HDAC Assay Buffer were added to each well. 50 μL of 2x HDAC Developer was added to each well and incubated at room temperature for 15 min. The samples were read in an enzyme marker with an excitation wavelength in the range of 350-380 nm and an emission light in the range of 440-460 nm.
The values of fluorescence intensities were read and the inhibition rate and IC50 were calculated. […]

The test system of series [4] is Ac-α-tubulin (substrate for HDAC6). As to the kind of experiment: Western blot of Ac-α-tubulin in HCT-116 cells. It counts as cell-based. The conditions noted are these: HCT-116, 5−20 μM, 24 h. As to the method:
as §1, §2, §3, §4, §5
(In general: In western blotting, separated proteins are transferred to a membrane and probed.)

The structures appear in SMILES notation. pIC50: −log10 of the molar value.

For the molecule `O=C(CCCCCCNc1ccc(NC(=O)c2cnc3scc(-c4ccc(Br)cc4)n23)cc1)NO` [Compound 10e, 3-(4-Bromophenyl)-N-{4-[(7-(hydroxyamino)-7-oxoheptyl)amino]phenyl}imidazo[2,1-b]thiazole-5-carboxamide], the “Ac-histone H3 levels” value in series [1] was “slight increase”. The pIC50 (usually the negative decadic logarithm of the IC50, by convention in mol/L) was 5.97 against HDAC1, under 4.10 in series [2] and 7.23 in series [3]. In series [3] (HDAC1/HDAC6), the “Selectivity Index (SI) = HDAC1 IC50 value/HDAC6 IC50 value” is on record as 18.51. Moreover, the inhibition (usually the relative decrease from the control value, in per cent) at 1 µM in series [3] (read-out: HDAC6 Inhibition Rate at 1 μM) amounted to 90.5%. For the same molecule, the Ac-α-tubulin levels entry in series [4] is reported as “markedly increased”.

The values are drawn from publication PMC12195740, “Discovery of Novel Imidazothiazole-Based Hydroxamic Acid Derivatives as Potent Indoleamine 2,3-Dioxygenase 1 and Histone Deacetylase 6 Dual Inhibitors” (Molecules, 2025).
